Each structure is given as a SMILES string. ≈ marks a conversion by molar mass, not a printed value. Positions of bridges follow the written chain, without caps; N, C: chain ends. Non-standard residues stand in square brackets, D forms with d. Residues, ends and D or L forms follow the SMILES beside them. Groups on a side chain read outwards from the residue. *: point of attachment. Palmitoyl(16-(5-tetrazolyl)) = O=C(CCCCCCCCCCCCCCCc1nnn[nH]1)*; Lys(CH2CO2H)2 = N[C@@H](CCCCN(CC(=O)O)CC(=O)O)C(=O)O; C17 diacid = O=C(O)CCCCCCCCCCCCCCCC(=O)*; C16 diacid = O=C(O)CCCCCCCCCCCCCCC(=O)*; Hyp = O=C(O)[C@@H]1C[C@@H](O)CN1; NTA = O=C(O)CN(CC(=O)O)CC(=O)*; hCys = N[C@@H](CCS)C(=O)O; Orn = NCCC[C@H](N)C(=O)O; Dap = NC[C@H](N)C(=O)O; AEEA = NCCOCCOCC(=O)O Where only a bound is given, the exact number is not on record here.

One data set is described as follows: physchem. As for the experimental part: From a stock solution in vehicle, either H2O or 10 mM phosphate, containing 1 mg (as weighed) compound per ml, 8-11 aliquots are withdrawn and pH-adjusted individually with HCl/NaOH, to cover the whole pH range.
A further data set concerns the target MC1 receptor (Homo sapiens, UniProt Q01726). The data set is described as follows: biochemical. Put shortly: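 Radioligand competition on membranes (25 μg/ml) of BHK cells stably expressing MC1, with 22 pM final 125I-NDP-α-MSH in 25 mM HEPES pH 7.4, Ca/Mg, EDTA, 0.1% HSA (or ovalbumin), 0.005% Tween 20. Incubated 90 min at 30 °C, filtered over PEI-treated GF/B; curves fitted by non-linear regression.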

MC1 receptor, sequence (Q01726 whole entry): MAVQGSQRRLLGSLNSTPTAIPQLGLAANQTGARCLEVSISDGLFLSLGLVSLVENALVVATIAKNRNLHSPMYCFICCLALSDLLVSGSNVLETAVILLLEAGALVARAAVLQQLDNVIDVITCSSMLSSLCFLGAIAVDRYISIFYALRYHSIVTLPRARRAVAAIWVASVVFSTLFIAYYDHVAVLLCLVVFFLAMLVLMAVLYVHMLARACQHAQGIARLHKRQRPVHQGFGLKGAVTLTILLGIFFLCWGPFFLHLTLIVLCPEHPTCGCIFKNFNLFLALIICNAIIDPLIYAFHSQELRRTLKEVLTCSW

One may read the solubility as the dissolved amount per volume that the medium holds. Higher therefore signals a readily soluble substance. What is called Ki is a measure of affinity in units of concentration, obtained from inhibition or displacement. Low values mean a stronger hold on the target, high ones a looser hold on the target. Regarding `CC(=O)N[C@H]1CCCNC(=O)CC[C@@H](C(=O)N2CCC[C@H]2C(=O)N[C@@H](CO)C(=O)N[C@@H](CO)C(=O)N[C@@H](CO)C(=O)N[C@@H](CCCCN(CC(=O)O)CC(=O)O)C(=O)N[C@@H](CO)C(=O)N[C@@H](CO)C(=O)N[C@@H](CCCCNC(=O)COCCOCCNC(=O)CCCCCCCCCCCCCCCC(=O)O)C(N)=O)NC(=O)[C@H](Cc2c[nH]c3ccccc23)NC(=O)[C@H](CCCNC(=N)N)NC(=O)[C@@H](Cc2ccccc2)NC(=O)[C@H](Cc2c[nH]cn2)NC1=O` [Example 57, Ac-c[Orn-His-D-Phe-Arg-Trp-Glu]-Pro-Ser-Ser-Ser-Lys(biscarboxymethyl)-Ser-Ser-Lys({2-[2-(16-carboxyhexadecanoylamino)ethoxy]ethoxy}acetyl)-NH2] (Ac-[Orn]H[dF]RWEPSSS[Lys(CH2CO2H)2]SSK([AEEA-C17 diacid])-NH2; lactam 1-6), the solubility came to 47 µM (≈ 105 µg/mL) in the data set “physchem” (pH 6.8, Solubility Conc., pH 6.8, vehicle 10 mM phosphate); 79 µM (≈ 177 µg/mL) in “physchem” (pH 7.1, Solubility Conc., pH 7.1, vehicle 10 mM phosphate); 169 µM (≈ 379 µg/mL) in “physchem” (pH 7.4, Solubility Conc., pH 7.4, vehicle 10 mM phosphate); 395 µM (≈ 886 µg/mL) in the data set “physchem” (pH 7.5, Solubility Conc., pH 7.5, vehicle 10 mM phosphate); 521 µM (≈ 1170 µg/mL) in the data set “physchem” (pH 7.6, Solubility Conc., pH 7.6, vehicle 10 mM phosphate); 408 µM (≈ 915 µg/mL) in the data set “physchem” (pH 7.7, Solubility Conc., pH 7.7, vehicle 10 mM phosphate). For the same molecule, the solubility worked out at 524 µM (≈ 1180 µg/mL) in “physchem” (pH 7.8, Solubility Conc., pH 7.8, vehicle 10 mM phosphate) and 392 µM (≈ 879 µg/mL) in “physchem” (pH 8, Solubility Conc., pH 8.0, vehicle 10 mM phosphate). Moreover, in the data set “physchem” (pH 7.5, vehicle 10 mM phosphate), the “Solubility Conc.” value is 284 µM (≈ 637 µg/mL). In addition, at MC1 receptor, the Ki was > 10 µM.

Take `CC(=O)N[C@H]1CSSC[C@@H](C(=O)N2CCC[C@H]2C(=O)N2CCC[C@H]2C(=O)N[C@@H](CCCCN)C(=O)N[C@@H](CCC(=O)O)C(=O)N[C@@H](CCCCN(CC(=O)O)CC(=O)O)C(=O)N[C@@H](CCCCNC(=O)COCCOCCNC(=O)CCCCCCCCCCCCCCCc2nnn[nH]2)C(N)=O)NC(=O)[C@H](Cc2c[nH]c3ccccc23)NC(=O)[C@H](CCCNC(=N)N)NC(=O)[C@@H](Cc2ccccc2)NC(=O)[C@H](Cc2c[nH]cn2)NC(=O)[C@H](CCC(=O)O)NC1=O` [Example 63, Ac-c[Cys-Glu-His-D-Phe-Arg-Trp-Cys]-Pro-Pro-Lys-Glu-Lys(biscarboxymethyl)-Lys[(2-{2-[16-(tetrazol-5-yl)hexadecanoylamino]ethoxy}ethoxy)acetyl]-NH2] (Ac-CEH[dF]RWCPPKE[Lys(CH2CO2H)2]K([AEEA-Palmitoyl(16-(5-tetrazolyl))])-NH2; disulfide 1-7): the solubility in the data set “physchem” (pH 3.8, Solubility Conc.) worked out at 33 µM (≈ 75.7 µg/mL); in “physchem” (pH 4.2, Solubility Conc.), 23 µM (≈ 52.8 µg/mL); in the data set “physchem” (pH 4.6, Solubility Conc.), 28 µM (≈ 64.3 µg/mL); in the data set “physchem” (pH 5.1, Solubility Conc.) it was 78 µM (≈ 179 µg/mL); in the data set “physchem” (pH 6, Solubility Conc.), 484 µM (≈ 1110 µg/mL); in the data set “physchem” (pH 7.9, Solubility Conc.) it was 451 µM (≈ 1030 µg/mL). The solubility in the data set “physchem” (pH 8.1, Solubility Conc.) was 417 µM (≈ 957 µg/mL); in “physchem” (pH 8.5, Solubility Conc.) it was 495 µM (≈ 1140 µg/mL); in “physchem” (pH 8.9, Solubility Conc.) it was 465 µM (≈ 1070 µg/mL). In addition, the Ki on MC1 receptor is > 10 µM.

With `CC(=O)N[C@H]1CCSSC[C@@H](C(=O)N2CCC[C@H]2C(=O)N2CCC[C@H]2C(=O)N[C@@H](CCCCN)C(=O)N[C@@H](CC(=O)O)C(=O)N[C@@H](CNC(=O)CN(CC(=O)O)CC(=O)O)C(=O)N[C@@H](CCCCNC(=O)COCCOCCNC(=O)CCCCCCCCCCCCCCCc2nnn[nH]2)C(N)=O)NC(=O)[C@H](Cc2c[nH]c3ccccc23)NC(=O)[C@H](CCCNC(=N)N)NC(=O)[C@@H](Cc2ccccc2)NC(=O)[C@H](CCC(N)=O)NC1=O` [Example 66, Ac-c[homoCys-Gln-D-Phe-Arg-Trp-Cys]-Pro-Pro-Lys-Asp-Dap(BCMA)-Lys[(2-{2-[16-(tetrazol-5-yl)hexadecanoylamino]ethoxy}ethoxy)acetyl]-NH2] (Ac-[hCys]Q[dF]RWCPPKD[Dap](NTA)K([AEEA-Palmitoyl(16-(5-tetrazolyl))])-NH2; disulfide 1-6), the solubility in “physchem” (pH 4.8, Solubility Conc.) is 38 µM (≈ 82.5 µg/mL); in “physchem” (pH 6.4, Solubility Conc.) it was 390 µM (≈ 847 µg/mL); in “physchem” (pH 6.5, Solubility Conc.), 474 µM (≈ 1030 µg/mL); in the data set “physchem” (pH 6.7, Solubility Conc.) it was 447 µM (≈ 971 µg/mL); in the data set “physchem” (pH 6.9, Solubility Conc.) it was 455 µM (≈ 988 µg/mL); in “physchem” (pH 7.2, Solubility Conc.), 461 µM (≈ 1000 µg/mL). The solubility stood at 478 µM (≈ 1040 µg/mL) in “physchem” (pH 7.4, Solubility Conc.); 507 µM (≈ 1100 µg/mL) in the data set “physchem” (pH 7.6, Solubility Conc.); 499 µM (≈ 1080 µg/mL) in “physchem” (pH 8.1, Solubility Conc.). Moreover, the Ki on MC1 receptor is > 10 µM.

Turning to `CC(=O)N[C@H]1CCSSC[C@@H](C(=O)N2CCC[C@H]2C(=O)N2CCC[C@H]2C(=O)N[C@@H](CCCCN)C(=O)N[C@@H](CC(=O)O)C(=O)N[C@@H](CNC(=O)CN(CC(=O)O)CC(=O)O)C(=O)N[C@@H](CCCCNC(=O)COCCOCCNC(=O)CCCCCCCCCCCCCCCc2nnn[nH]2)C(N)=O)NC(=O)[C@H](Cc2c[nH]c3ccccc23)NC(=O)[C@H](CCCNC(=N)N)NC(=O)[C@@H](Cc2ccccc2)NC(=O)[C@@H]2C[C@@H](O)CN2C1=O` [Example 67, Ac-c[homoCys-Hyp-D-Phe-Arg-Trp-Cys]-Pro-Pro-Lys-Asp-Dap(BCMA)-Lys[(2-{2-[16-(tetrazol-5-yl)hexadecanoylamino]ethoxy}ethoxy)acetyl]-NH2] (Ac-[hCys][Hyp][dF]RWCPPKD[Dap](NTA)K([AEEA-Palmitoyl(16-(5-tetrazolyl))])-NH2; disulfide 1-6), the solubility came to 600 µM (≈ 1290 µg/mL) in the data set “physchem” (pH 3.3, Solubility Conc.); 420 µM (≈ 906 µg/mL) in the data set “physchem” (pH 3.4, Solubility Conc.); 250 µM (≈ 539 µg/mL) in “physchem” (pH 3.6, Solubility Conc.); 37 µM (≈ 79.8 µg/mL) in “physchem” (pH 4.1, Solubility Conc.); 38 µM (≈ 81.9 µg/mL) in “physchem” (pH 5.4, Solubility Conc.); 207 µM (≈ 446 µg/mL) in “physchem” (pH 5.9, Solubility Conc.). Moreover, the solubility was 482 µM (≈ 1040 µg/mL) in the data set “physchem” (pH 6.3, Solubility Conc.); 533 µM (≈ 1150 µg/mL) in “physchem” (pH 6.4, Solubility Conc.); 587 µM (≈ 1270 µg/mL) in the data set “physchem” (pH 6.8, Solubility Conc.); 590 µM (≈ 1270 µg/mL) in “physchem” (pH 7.3, Solubility Conc.). In addition, at MC1 receptor, the Ki was > 10 µM.

Consider `CC(=O)N[C@H]1CCSSC[C@@H](C(=O)N2CCC[C@H]2C(=O)N2CCC[C@H]2C(=O)N[C@@H](CO)C(=O)N[C@@H](CCC(=O)O)C(=O)N[C@@H](CCCCN(CC(=O)O)CC(=O)O)C(=O)N[C@@H](CCCCNC(=O)COCCOCCNC(=O)CCCCCCCCCCCCCCC(=O)O)C(N)=O)NC(=O)[C@H](Cc2c[nH]c3ccccc23)NC(=O)[C@H](CCCNC(=N)N)NC(=O)[C@@H](Cc2ccccc2)NC(=O)[C@H](Cc2c[nH]cn2)NC1=O` [Example 70, Ac-c[homoCys-His-D-Phe-Arg-Trp-Cys]-Pro-Pro-Ser-Glu-Lys(biscarboxymethyl)-Lys({2-[2-(15-carboxypentadecanoylamino)ethoxy]ethoxy}acetyl)-NH2] (Ac-[hCys]H[dF]RWCPPSE[Lys(CH2CO2H)2]K([AEEA-C16 diacid])-NH2; disulfide 1-6), for which the solubility in “physchem” (pH 3.4, Solubility Conc.) came to 190 µM (≈ 399 µg/mL); in the data set “physchem” (pH 3.9, Solubility Conc.), 65 µM (≈ 137 µg/mL); in “physchem” (pH 4.4, Solubility Conc.), 40 µM (≈ 84 µg/mL); in the data set “physchem” (pH 5.5, Solubility Conc.), 59 µM (≈ 124 µg/mL); in the data set “physchem” (pH 5.6, Solubility Conc.), 142 µM (≈ 298 µg/mL); in the data set “physchem” (pH 5.8, Solubility Conc.), 210 µM (≈ 441 µg/mL). In addition, the solubility turned out to be 429 µM (≈ 901 µg/mL) in the data set “physchem” (pH 6.1, Solubility Conc.); 444 µM (≈ 933 µg/mL) in the data set “physchem” (pH 7.5, Solubility Conc.); 463 µM (≈ 973 µg/mL) in the data set “physchem” (pH 7.8, Solubility Conc.); 440 µM (≈ 924 µg/mL) in the data set “physchem” (pH 8, Solubility Conc.). Further, on MC1 receptor, the Ki is > 10 µM.
